Data as given in patent publication US20240210394A1, “MICROORGANISM CAPTURE FROM ANTIMICROBIAL-CONTAINING SOLUTION” (MOMENTUM BIOSCIENCE LIMITED, priority 2019, published 2024).

System: E. coli
Experiment: Blood culture time to positivity (flip time), bead rescue vs no-rescue control
Assay type: cell-based
Conditions: Piperacillin 96 ug/mL blood; for Flip time in Days: No bead rescue Control BC; for Time to positivity in days: 1800 cfu/5 ml

CCN1CCN(C(=O)N[C@@H](C(=O)N[C@@H]2C(=O)N3[C@@H]2SC(C)(C)[C@@H]3C(=O)O)c2ccccc2)C(=O)C1=O [Piperacillin]
Neg: Flip time in Days (50000 cfu/5 mL) | Flip time in Days (150000 cfu/5 mL) | Time to positivity in days (Control (no beads)) | Time to positivity in days (with magnetic beads in the bottle)
